The results in this text go back to US8314130B2, “Compounds inclunding substituted pyridines for inflammation and immune-related uses” (Synta Pharmaceuticals Corp., priority 2008, dated 2012).

Read-outs that look alike come from different tables or passages of the source. Where only a bound is given, the exact number is not on record here.

The target in one experiment is T1, CRACM1/STIM1 (Homo sapiens, UniProt Q96D31).
T1 construct: Full length human Stim1, CracM1, CracM2 and CracM3 cDNA
In words: ICRAC current inhibition in CRACM1/STIM1-CHOK1 cells (patch clamp). Format: cell-based. The settings on record: 500 nM, activity class. As for the experimental part: Manual patch clamp experiments are conducted in the tight-seal whole-cell configuration at room temperature (21-25° C.). Patch pipettes are fashioned from borosilicate glass capillary tubes and have resistances between 2-4 MO after filling with standard intracellular solution. High resolution current recordings are acquired with a computer-based patch clamp amplifier system (EPC-10, HEKA, Lambrecht, Germany). All voltages are corrected for a liquid junction potential of 10 mV between external and internal solutions with glutamate as the intracellular anion. Currents are filtered at 2.9 kHz and digitized at 10 μs intervals. Capacitive currents and series resistance are determined and corrected before each voltage ramp using the automatic capacitance compensation of the EPC-10.
Automated patch clamp experiments are conducted with the QPatch 16 (Sophion Bioscience, Ballerup, Denmark) at room temperature (21-25° C.). Immediately following the establishment of giga-seal whole-cell configuration, the cells membrane potential is clamped at 0 mV. Voltage ramps of 50 ms duration spanning the voltage range of −100 to +100 mV are then stimulated at a rate of 0.33 Hz. Currents are filtered at 2.9 kHz and digitized at 200 μs intervals. Capacitive currents and series resistance are determined and corrected before each voltage ramp using the automatic capacitance compensation.
In general, a whole cell patch clamp method is used to examine the effects of a compound of the invention on a channel(s) that mediates ICRAC. In such experiments, a baseline ICRAC measurement is established within the first 70 voltage ramps, or 140 seconds, for a patched cell. Then the cells are perfused with the compound to be tested and the effect of the compound on ICRAC is measured for at least an additional 440 to 500 seconds. A compound that modulates ICRAC (e.g., inhibits) is a compound that is useful in the invention for modulating CRAC ion channel activity.
ICRAC currents are measured using 50 msec voltage ramps between −100 mV to +100 mV. The voltage ramps are stimulated every 2 seconds for the first 70 sweeps, then every 5 seconds for the remainder of the experiment. The membrane potential is held at 0 mV between the test ramps. In a typical experiment, the peak inward currents will develop within 50-100 seconds. Once the ICRAC current is stabilized, the cells are perfused with a test compound in the extracellular solution for at least an additional 500 seconds.
Off-line analysis with the Heka PatchMaster software is used to separate the ICRAC membrane current from the cells basal background currents. In a typical recording, InsP3 stimulated ICRAC currents begin to develop in 6 to 12 seconds after whole cell is established. Therefore, the first 1-4 voltage ramps represent the basal membrane currents in the absence of ICRAC and the average value is subtracted from all subsequent traces. The current value at −80 mV for each ramp trace is then measured and plotted against time. The resulting current versus time data is exported into a Microsoft Excel spreadsheet. The % ICRAC inhibition in each cell is calculated by comparing the amount of current just prior to the compound perfusion to the amount of current after the cells has been perfused with the compound for 440-500 seconds. The IC50 value and Hill coefficient for each compound is estimated by fitting all the individual data points to a single-site Hill equation.
TREx™-CHO cells were transfected with human Stim1 (recombinant DNA in pcDNA4/TO/myc-His™ A with a myc epitope tag in the N-terminal) and either CracM1, CracM2 or CracM3 (recombinant DNA in pcDNA 3.1 with a HA epitope tag in the N-terminal). Stably expressing cells were selected by growing the transfected cells in antibiotics for two to three weeks. Individual cell clones were isolated via serial dilution. […]

For the next experiment, the system named is IL-2. Put plainly: Inhibition of IL-2 production in PHA-activated Jurkat cells (1% FBS), ELISA. Format: cell-based. The settings on record: Homo sapiens, read-out: IL-2 current inhibition Jurkat/PHA/1% FBS IC50. How it is done:
Jurkat cells were placed in a 96 well plate (0.5 million cells per well in 1% FBS medium), and then a test compound of this invention was added at different concentrations. After 10 minutes, the cells were activated with PHA (final concentration 2.5 μg/mL) and incubated for 20 hours at 37° C. under 5% CO2. The final volume was 200 Following incubation, the cells were centrifuged, and the supernatants collected and stored at −70° C. prior to assaying for IL-2 production. A commercial ELISA kit (IL-2 Eli-pair, Diaclone Research, Besancon, France) was used to detect production of IL-2, from which dose response curves were obtained. The IC50 value was calculated as the concentration at which 50% of maximum IL-2 production after stimulation was inhibited versus a non-stimulation control.
(In general: ELISA stands for enzyme-linked immunosorbent assay.)

T1 sequence (Q96D31 whole entry): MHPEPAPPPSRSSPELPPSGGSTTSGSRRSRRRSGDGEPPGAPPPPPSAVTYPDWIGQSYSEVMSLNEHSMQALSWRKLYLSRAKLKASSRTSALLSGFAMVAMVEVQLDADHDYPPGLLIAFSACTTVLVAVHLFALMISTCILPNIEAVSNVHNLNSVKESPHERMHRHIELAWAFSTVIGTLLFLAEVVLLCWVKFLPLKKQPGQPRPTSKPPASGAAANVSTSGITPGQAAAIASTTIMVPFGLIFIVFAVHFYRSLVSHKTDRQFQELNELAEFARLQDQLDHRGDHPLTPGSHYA

Take `Cc1cc(C(=O)c2ccccc2)sc1-c1ccc(NC(=O)c2c(F)cccc2F)cc1` [A]: the inhibition at 0.5 µM at CRACM1/STIM1 lay within 70 to 100%. Moreover, in the experiment with IL-2 (activity class), the IC50 was below 0.05 µM.
The like results for `Cc1cc(C(=O)c2cccnc2)sc1-c1ccc(NC(=O)c2c(F)cccc2F)nc1` [B] were, in that order, 50 to 70% and below 0.05 µM.
On CRACM1/STIM1, `CC(C)c1sc(-c2cccnc2)nc1-c1ccc(NC(=O)c2c(F)cccc2F)nc1` [C] gave an inhibition at 0.5 µM below 50%. The IC50 in the experiment with IL-2 (activity class) was below 0.05 µM.
The like results for `Cc1sc(-c2ccccn2)nc1-c1ccc(NC(=O)c2c(F)cccc2F)nc1` [Compound 1, 2,6-Difluoro-N-(5-(5-methyl-2-(pyridin-2-yl)thiazol-4-yl)pyridin-2-yl)benzamide] were, in that order, 50 to 70% and below 0.05 µM.
The like results for `Cc1sc(-c2ccccn2)nc1-c1ccc(NC(=O)c2c(F)cccc2F)cc1` [Compound 2, 2,6-Difluoro-N-(4-(5-methyl-2-(pyridin-2-yl)thiazol-4-yl)phenyl)benzamide] were, in that order, 70 to 100% and below 0.05 µM.
`Cc1sc(-c2cccnc2)nc1-c1ccc(NC(=O)c2c(F)cccc2F)nc1` [Compound 3, 2,6-Difluoro-N-(5-(5-methyl-2-(pyridin-3-yl)thiazol-4-yl)pyridin-2-yl)benzamide] registered an inhibition at 0.5 µM against CRACM1/STIM1 of 70 to 100%. Also, in the experiment with IL-2 (activity class), the IC50 is below 0.05 µM.
The like results for `Cc1sc(-c2cnn(C)c2)nc1-c1ccc(NC(=O)c2c(F)cccc2F)nc1` [Compound 4, 2,6-Difluoro-N-(5-(5-methyl-2-(1-methyl-1H-pyrazol-4-yl)thiazol-4-yl)pyridin-2-yl)benzamide] were, in that order, below 50% and below 0.05 µM.
Consider `CC(C)c1sc(-c2cnn(C)c2)nc1-c1ccc(NC(=O)c2ccc(F)cc2F)nc1` [Compound 5, 2,4-Difluoro-N-(5-(5-isopropyl-2-(1-methyl-1H-pyrazol-4-yl)thiazol-4-yl)pyridin-2-yl)benzamide], for which, in the experiment on IL-2 (activity class), the IC50 was above 0.1 µM.
In turn, `Cc1cc(C(=O)c2cccnc2)sc1-c1ccc(NC(=O)c2c(F)cccc2F)cc1` [Compound 6, 2,6-difluoro-N-(4-(3-methyl-5-nicotinoylthiophen-2-yl)phenyl)benzamide] gave an inhibition at 0.5 µM against CRACM1/STIM1 of 70 to 100%. Further, in the experiment with IL-2 (activity class), the IC50 is below 0.05 µM.
For `Cc1cc(Cc2cccnc2)sc1-c1ccc(NC(=O)c2c(F)cccc2F)cc1` [Compound 7, 2,6-difluoro-N-(4-(3-methyl-5-(pyridin-3-ylmethyl)thiophen-2-yl)phenyl)benzamide], in that order: 70 to 100% and below 0.05 µM.
As to `CC(C)(O)c1sc(-c2cccnc2)cc1-c1ccc(NC(=O)c2c(F)cccc2F)nc1` [Compound 9, 2,6-difluoro-N-(5-(2-(2-hydroxypropan-2-yl)-5-(pyridin-3-yl)thiophen-3-yl)pyridin-2-yl)benzamide], in the experiment on IL-2 (activity class), the IC50 is above 0.1 µM.
On to `CC(C)(O)c1sc(-c2cccnc2)cc1-c1cnc(NC(=O)c2c(F)cccc2F)cn1` [Compound 12, 2,6-difluoro-N-(5-(2-(2-hydroxypropan-2-yl)-5-(pyridin-3-yl)thiophen-3-yl)pyrazin-2-yl)benzamide], for which the IC50 in the experiment with IL-2 (activity class) is above 0.1 µM.
As for `C=C(C)c1sc(-c2cccnc2)cc1-c1cnc(NC(=O)c2c(F)cccc2F)cn1` [Compound 13, 2,6-difluoro-N-(5-(2-(prop-1-en-2-yl)-5-(pyridin-3-yl)thiophen-3-yl)pyrazin-2-yl)benzamide], the IC50 in the experiment on IL-2 (activity class) is 0.05 to 0.1 µM.
On the same count and under the same terms, with `O=C(Nc1ccc(-c2cc(-c3cccnc3)sc2-c2cccnc2)cc1)c1c(F)cccc1F` [Compound 16, N-(4-(2,5-di(pyridin-3-yl)thiophen-3-yl)phenyl)-2,6-difluorobenzamide] the figure was below 0.05 µM.
On the same count and under the same terms, to `Cc1sc(-c2cccnc2)cc1-c1cnc(NC(=O)c2c(F)cccc2F)cn1` [Compound 17, 2,6-difluoro-N-(5-(2-methyl-5-(pyridin-3-yl)thiophen-3-yl)pyrazin-2-yl)benzamide] belongs below 0.05 µM.
With `CCc1sc(-c2cccnc2)nc1-c1ccc(NC(=O)c2cccc(F)c2C)nc1` [Compound A2], the IC50 with IL-2 (numeric values, unit inferred) is 0.01 µM.
The same measure, in the same setting: to `CCc1sc(-c2ccc(N)nc2)nc1-c1ccc(NC(=O)c2cccc(F)c2C)nc1` [Compound A3] belongs 0.016 µM.
Take `Cc1sc(-c2ccc(N)nc2)nc1-c1cnc(NC(=O)c2c(F)cccc2F)cn1` [Compound A4]: in the experiment on IL-2 (numeric values, unit inferred), the IC50 turned out to be 0.017 µM.
On to `Cc1cccc(F)c1C(=O)Nc1ccc(-c2nc(-c3cnn(C)c3)sc2C)cn1` [Compound A5], for which, in the experiment with IL-2 (numeric values, unit inferred), the IC50 is 0.077 µM.
For the compound `Cc1cc(-c2nc(-c3ccc(NC(=O)c4cccc(F)c4C)nc3)c(C)s2)no1` [Compound A6], in the experiment with IL-2 (numeric values, unit inferred), the IC50 turned out to be 0.021 µM.
Take `CCc1sc(-c2ccc(C)nc2)nc1-c1ccc(NC(=O)c2cccc(F)c2C)nc1` [Compound A7]: the IC50 with IL-2 (numeric values, unit inferred) stood at 0.021 µM.
Same read-out and setting: to `Cc1cccc(F)c1C(=O)Nc1ccc(-c2nc(-c3ccc(N)nc3)sc2C)cn1` [Compound A8] belongs 0.026 µM; to `CCc1sc(-c2cccnc2C)nc1-c1ccc(NC(=O)c2cccc(F)c2C)nc1` [Compound A9], 0.028 µM.
Consider `CCc1sc(-c2cnn(C)c2)nc1-c1cnc(NC(=O)c2c(F)cccc2F)cn1` [Compound A10], for which the IC50 in the experiment with IL-2 (numeric values, unit inferred) was 0.04 µM.
On the same count and under the same terms, to `Cc1sc(-c2cnccn2)nc1-c1ccc(NC(=O)c2cccc(F)c2C)nc1` [Compound A11] belongs 0.043 µM.
On the same count and under the same terms, to `CCc1sc(-c2cnn(C)c2)nc1-c1ccc(C(=O)Nc2c(C)cccc2F)cc1` [Compound A12] belongs 0.044 µM.
As for `CC(C)c1sc(-c2cccnc2)cc1-c1cnc(NC(=O)c2c(F)cccc2F)cn1` [Compound T], the IC50 in the experiment on IL-2 (activity class) is below 0.05 µM.
The same measure, in the same setting: with `CC(C)c1sc(-c2cccnc2)nc1-c1ccc(NC(=O)c2ccc(F)cc2F)nc1` [D] the figure was 0.05 to 0.1 µM; with `Cc1sc(CCc2cccnc2)nc1-c1ccc(NC(=O)c2c(F)cccc2F)nc1` [E], 0.05 to 0.1 µM; with `Cc1sc(-c2cnco2)nc1-c1ccc(NC(=O)c2c(F)cccc2F)cc1` [G], below 0.05 µM.
The same measure, in the same setting: to `Cc1sc(-c2ncc(-c3cccnc3)s2)cc1-c1ccc(NC(=O)c2c(F)cccc2F)nc1` [I] belongs above 0.1 µM; to `Cc1sc(-c2ncco2)cc1-c1ccc(NC(=O)c2c(F)cccc2F)cc1` [J], below 0.05 µM.
Still for that read-out and setting: to `Cc1sc(-c2cncn2CCN(C)C)cc1-c1ccc(NC(=O)c2c(F)cccc2F)cc1` [K] belongs above 0.1 µM; to `CC(=O)c1cc(-c2ccc(NC(=O)c3c(F)cccc3F)cc2)c(C)s1` [L], above 0.1 µM; to `COC(=O)c1cc(NC(=O)c2c(F)cccc2F)ccc1-c1cc(-c2cccnc2)sc1CO` [M], above 0.1 µM.
Regarding `CC(C)(O)c1sc(-c2cccnc2)cc1-c1ccc(NC(=O)c2c(F)cccc2F)cc1` [N], in the experiment with IL-2 (activity class), the IC50 was below 0.05 µM.
Still for that read-out and setting: to `Cc1sc(C(=O)c2ccncc2)cc1-c1ccc(NC(=O)c2c(F)cccc2F)cc1` [P] belongs below 0.05 µM.
Same read-out and setting: with `Cc1sc(C#Cc2cccnc2)cc1-c1ccc(NC(=O)c2c(F)cccc2F)cc1` [Q] the figure was below 0.05 µM.
For `Cc1sc(CCc2cccnc2)cc1-c1ccc(NC(=O)c2c(F)cccc2F)cc1` [R], in the experiment with IL-2 (activity class), the IC50 was below 0.05 µM.
Same read-out and setting: with `Cc1sc(-c2ncco2)cc1-c1cnc(NC(=O)c2c(F)cccc2F)cn1` [S] the figure was below 0.05 µM.

A word on the inhibition: it is the relative decrease from the control value, in per cent. Low readings indicate little suppression, high ones strong suppression.
